Measured values taken from paper PMC12810539, “EGFR-targeted gadolinium contrast agents for enhanced molecular magnetic resonance imaging of tumors” (The Journal of Biological Chemistry, 2025).

Test system: MDA-MB-231 and U138 MG cells
Test: Laser scanning confocal fluorescence microscopy of cellular uptake
Assay type: cell-based, human
Conditions: for Cy5.5 fluorescence intensity in MDA-MB-231 cells versus U138MG cells: 0.3 μM Cy5.5 equivalent, 1 h, 37 °C, confocal microscopy; for effect of C225 preincubation on cellular fluorescence: C225 preincubation 12 h, then agent for 1 h, MDA-MB-231 and U138 MG cells
Description: To investigate the intracellular distribution of EBP-Gd-DO3A in cells with different levels of EGFR expression, MDA-MB-231 and U138 MG cells were seeded on glass coverslips in 24-well plates (5 × 10^4 cells per well). After 24 h, the cells were washed twice with serum-free medium, treated with 0.3 μM Cy5.5 or Cy5.5-EBP-Gd-DO3A (concentration of equivalent Cy5.5), and incubated at 37 °C for 1 h. Following incubation, cells were washed three times with PBS (pH 7.4) to remove unbound probes and were stained with 4′,6-diamidino-2-phenylindole (DAPI) (Sigma-Aldrich) for 10 min and examined with a laser scanning confocal fluorescence microscope (Leica, TCS SP8) with a 40 × objective lens. The fluorescence signals from Cy5.5 and its conjugates were visualized at λex = 680 nm and λem = 710 nm, while the fluorescence signals of DAPI (nucleus) were performed at λex = 350 nm and λem = 460 nm. The laser power, illumination intensity, and exposure time were kept identical across all samples to ensure quantitative comparability. To further characterize the selective cellular uptake of the conjugate via the EGFR-mediated pathway, the cells were preincubated with C225 for 12 h at 37 °C before probe treatment. Following the removal of the pretreatment solution, the cells were washed with serum-free medium, treated with Cy5.5 or Cy5.5-EBP-Gd-DO3A conjugate, and incubated at 37 °C as described above. The cells were stained with DAPI and visualized using the laser scanning confocal fluorescence microscope, and the fluorescent intensity of the cells was analyzed using Image J.

CMYIEALDKYAC [Cy5.5-EBP-Gd-DO3A, Cy5.5-labelled EBP-Gd-DO3A conjugate for fluorescence microscopy]
Cy5.5 fluorescence intensity in MDA-MB-231 cells versus U138MG cells: much stronger
effect of C225 preincubation on cellular fluorescence: inhibited

Cy5.5 [reference compound]
Cy5.5 fluorescence intensity in MDA-MB-231 cells versus U138MG cells: the same
effect of C225 preincubation on cellular fluorescence: did not affect
